A short description of data set [1]: Tacrolimus blood pharmacokinetics without and with omeprazole 20 mg or famotidine 20 mg in kidney transplant patients (CMIA, non-compartmental analysis). In kind it is in vivo, human. Particulars: for Effect of single 20 mg co-administration on tacrolimus pharmacokinetic parameters: kidney transplant patients, day 2 vs day 1; for the mean C0/D ratio: pre-dose concentration / daily dose; for C0h, Q1: first quartile; for C0h, Q2: median; for C0h, Q3: third quartile; for concentration at 2 h / concentration at 6 h / AUC(0-t) / Cmax / AUC: human, whole blood, oral; for concentration at 2 h: read-out: C2; for concentration at 6 h: read-out: C6; for AUC(0-t): read-out: AUC0-6; for AUC: read-out: AUC2-6. The source says:
The study, randomized, non-blinded, comprised 24 stabilized adult patients between 1–12 months after kidney transplantation (NCT05061303), who received a kidney from a deceased donor. Inclusion criteria were time since kidney transplantation (1–12 months after kidney transplantation) and standard immunosuppressive regimen (tacrolimus, mycophenolate mofetil, prednisone/methylprednisolone/deflazacort). In this group, 2 individuals withdrew their informed consent and were excluded from study. Each randomized patient was admitted to the Department of Nephrology, Transplantology and Internal Diseases of Poznan University of Medical Sciences for 2 days (48 h). The study used the simple randomization method. One of the authors of the study (no the principal researcher) generated a randomized sequence for assigning patients to groups. The random component (computer-generated random numbers) was used in the sequence generation process. Figure 1 presented CONSORT flow chart. No participant changed the group during the study. Standard laboratory tests (creatinine, estimated glomerular filtration rate (eGFR), complete blood count, proteinuria, erythrocyturia) were performed during the first 2 days of participation in the study. In addition, the glomerular filtration rate (GFR) was calculated for each patient using The Chronic Kidney Disease Epidemiology Collaboration (CKD-EPI) creatinine equation to estimate GFR. […] Patients received tacrolimus once daily in the form of tacrolimus monohydrate prolonged-release tablets (Envarsus®, Chiesi Farmaceutici), registration numbers: EU/1/14/935/00, EU/1/14/935/004, EU/1/14/935/006, EU/1/14/935/007 or in the form of tacrolimus monohydrate prolonged-release hard capsules (Advagraf®, Astellas Pharma Europe), registration numbers: EU/1/07/387/001, EU/1/07/387/003, EU/1/07/387/011, EU/1/07/387/007. […] All patients before the start of the study achieved tacrolimus steady state. […] The results were used to obtain the values of pharmacokinetic parameters and statistical evaluation. No study-related adverse events were reported by patients, physicians, medical staff, or others during the study.
In order to establish the tacrolimus metabolism rate in the patients, the blood concentration normalized by the dose (C/D ratio) was calculated. The C0/D ratio can be calculated by dividing the tacrolimus pre-dose concentration (C0) by the corresponding daily tacrolimus dose (D). […] The fast metabolizers group included patients with a C/D ratio of <1.05 ng/mL*1/mg, whereas if the aforementioned ratio was ≥1.55 ng/mL*1/mg, the participants were described as slow metabolizers ([Tholking et al., 2014]).
Tacrolimus concentrations were determined using CMIA, by means of Alinity i analyser ([Mei et al., 2018]). Samples were stored frozen (−10°C or below) for no longer than 6 months. Each sample was thoroughly mixed prior to determining concentration, and 200 μL of each sample was pipetted into a centrifuge tube. Subsequently, the dispenser was filled with the appropriate volume of […] Tacrolimus Whole Blood Precipitation Reagent, followed by the removal of air bubbles from the dispenser. 200 μL of […] Tacrolimus Whole Blood Precipitation Reagent was added to the contents of the first centrifuge tube. Each individual tube was capped, mixed immediately after adding the reagent and centrifuged for 5–10 s. The tubes were then centrifuged again for 4 min. Each tube was uncapped and the supernatant was decanted (poured off) into a Graft Pre-Treatment Tube. They were then vortexed for 5–10 s and assayed for the concentrations of tacrolimus.
Calibration was performed in duplicate samples by testing Calibrators A, B, C, D, E and F. Control samples were prepared by mixing 150 μL of the patient sample and 150 μL of […] Tacrolimus Calibrator A. One sample for each control level was tested once every 24 h as a quality control test. […]

For data set [2] the following is noted: no reference given; cited from earlier work.
On the set-up of data set [3]: method as in Summary of Product Characteristics. As to conditions: ref Summary of Product Characteristics; cited from earlier work.
On the set-up of data set [4]: method as in Susal and Dohler, 2019. As to conditions: ref Susal and Dohler, 2019, cited from earlier work.
For data set [5] the following is noted: 2012, cited from earlier work.
Details of data set [6]: method as in Takahashi et al., 2007. Particulars: ref Takahashi et al., 2007, cited from earlier work.
[7] abbreviates: 0.0376 mg/kg, group II, no FA (day 1).
The mark [8] stands for this setting: 0.0611 mg/kg, group I, no OM (day 1).
Where [9] appears, read: 20 mg, group II, FA 20 mg (day 2).
The mark [10] stands for this setting: with omeprazole 20 mg (day 2) vs no omeprazole (day 1).

Structures are written as SMILES. Like-named read-outs stand apart in the source and are kept apart here.

Here are results for three molecules from article PMC11024357 (Frontiers in Pharmacology, 2024).

For `NC(N)=Nc1nc(CSCCC(N)=NS(N)(=O)=O)cs1` [famotidine], the “Effect of single 20 mg co-administration on tacrolimus pharmacokinetic parameters” value in data set [1] is reported as “no significant changes”.

For `COc1ccc2[nH]c([S+]([O-])Cc3ncc(C)c(OC)c3C)nc2c1` (stereo not shown) [omeprazole], the “bound to plasma proteins” value in data set [2] is “approximately 95%”. Moreover, in data set [3], the “elimination half-life in the body” value was “shorter than an hour”. For the same molecule, the “Effect of single 20 mg co-administration on tacrolimus pharmacokinetic parameters” value in data set [1] was “significantly increases blood exposure of tacrolimus”.

As for `C=CC[C@@H]1/C=C(\C)C[C@H](C)C[C@H](OC)[C@H]2O[C@@](O)(C(=O)C(=O)N3CCCC[C@H]3C(=O)O[C@H](/C(C)=C/[C@@H]3CC[C@@H](O)[C@H](OC)C3)[C@H](C)[C@@H](O)CC1=O)[C@H](C)C[C@@H]2OC` [tacrolimus], in data set [2], the “bound to plasma proteins” value is given as “approximately 99%”. Moreover, the “6-year survival of the kidney graft” value in data set [4] (tacrolimus C0 4.0–4.9 ng/mL) was 86.5%; in data set [4] (tacrolimus C0 5.0–6.9 ng/mL in the first 3 years after transplantation) it was “over 88%”; in data set [4] (tacrolimus C0 7.0–8.9 ng/mL in the first 3 years after transplantation), “over 88%”; in data set [4] (tacrolimus C0 <4 ng/mL) it was 82.6%; in data set [4] (tacrolimus C0 ≥9 ng/mL), 87.5%. The “increase in tacrolimus concentrations after omeprazole administration” value in data set [5] (kidney transplant patient, ref Zhao WFM. et al.) is given as “more than four-fold increase”. Besides, the “tacrolimus blood trough level (C0)” value in data set [5] (postoperative day 3, 9 mg twice daily, before omeprazole, ref Zhao W. et al.) was 19.6 ng/mL; in data set [5] (postoperative day 4, 9 mg twice daily, before omeprazole, ref Zhao W. et al.), 29.2 ng/mL; in data set [5] (postoperative day 6, dose reduced to 7 mg, omeprazole given on day 5, ref Zhao W. et al.), 92 ng/mL. Moreover, the serum creatinine (acute nephrotoxicity) in data set [5] (postoperative day 6, at tacrolimus C0 92 ng/mL with omeprazole, ref Zhao W. et al.) is 160 µM. Moreover, the “blood concentrations of tacrolimus” value in data set [6] (after switching omeprazole to oral rabeprazole 10 mg/day (day 21)) is listed as “approximately 10 ng/mL”. In addition, the tacrolimus trough levels result is on record as “above 15 ng/mL” in data set [6] (on omeprazole, despite dose reductions from 17 to 9 mg/day) and 30.0 ng/mL in data set [6] (post-transplant day 19, after start of intravenous omeprazole on day 18). Further, the “trough concentration of tacrolimus” value in data set [6] (post-transplant day 17, daily oral dose 17 mg, on ranitidine) is recorded as 12.5 ng/mL. The “the mean C0/D ratio” value in data set [1] (Group I (omeprazole group), mean ± SD) is listed as 2.02 ± 1.14 ng/mL*1/mg; in data set [1] (Group II (famotidine group), mean ± SD) it was 2.49 ± 0.76 ng/mL*1/mg. In data set [1] (group I, 2 h, OM 20 mg (day 2)), the C2 was 11.90 ± 5.03 ng/mL. Further, the “AUC 0–6 normalized by the dose” value is 1308.01 ± 595.19 (ng × h/mL)/(mg/kg) in data set [1] (group I, OM 20 mg (day 2)); 1784.71 ± 447.89 (ng × h/mL)/(mg/kg) in data set [1] (group II, FA 20 mg (day 2)); 1677.84 ± 358.32 (ng × h/mL)/(mg/kg) in data set [1] (group II, no FA (day 1)). For the same molecule, the “AUC 2–6 normalized by the dose” value in data set [1] (group I, OM 20 mg (day 2)) is given as 939.13 ± 453.89 (ng × h/mL)/(mg/kg); in data set [1] (group I, no OM (day 1)) it was 832.98 ± 415.81 (ng × h/mL)/(mg/kg); in data set [1] (group II, FA 20 mg (day 2)) it was 1268.57 ± 329.31 (ng × h/mL)/(mg/kg); in data set [1] (group II, no FA (day 1)), 1196.79 ± 279.50 (ng × h/mL)/(mg/kg). In data set [1] (group I, no OM (day 1)), this molecule returned an AUC0-6 of 54.23 ± 10.48 ng·h/mL. In data set [1] (group II, FA 20 mg (day 2)), this molecule showed an AUC2-6 of 44.05 ± 11.28 ng·h/mL. Moreover, the “C0h, Q1” value is “Q1: 5.60 ng/mL” in data set [1] (group II, FA 20 mg (day 2)) and “Q1: 5.25 ng/mL” in data set [1] (group II, no FA (day 1)). Besides, the “C0h, Q2” value in data set [1] (group II, FA 20 mg (day 2)) is listed as “Q2: 7.30 ng/mL”; in data set [1] (group II, no FA (day 1)), “Q2: 6.50 ng/mL”. Besides, the “C0h, Q3” value is recorded as “Q3: 7.95 ng/mL” in data set [1] (group II, FA 20 mg (day 2)) and “Q3: 8.80 ng/mL” in data set [1] (group II, no FA (day 1)). Further, the concentration at 2 h is 10.3 ± 4.64 ng/mL in data set [1] (0.0376 mg/kg, group II, 2 h, no FA (day 1)); 9.4 ± 2.5 ng/mL in data set [1] (0.0611 mg/kg, group I, 2 h, no OM (day 1)); 11.9 ± 1.59 ng/mL in data set [1] (group I, 2 h, OM 20 mg (day 2)); 9.4 ± 0.79 ng/mL in data set [1] (group I, 2 h, no OM (day 1)); 11 ± 4.27 ng/mL in data set [1] (group II, 2 h, FA 20 mg (day 2)). Besides, the concentration at 6 h in data set [1] (setting [7]) worked out at 10.8 ± 3.16 ng/mL; in data set [1] (setting [8]), 9.94 ± 3.03 ng/mL; in data set [1] (group I, OM 20 mg (day 2)), 10.3 ± 1.99 ng/mL; in data set [1] (group II, FA 20 mg (day 2)) it was 11 ± 3.53 ng/mL. The AUC(0-t) is 59.1 ± 16.6 ng·h/mL in data set [1] (setting [7]); 63.1 ± 19.5 ng·h/mL in data set [1] (20 mg, group I, OM 20 mg (day 2)); 62.1 ± 15.9 ng·h/mL in data set [1] (setting [9]). The Cmax – broadly, the highest concentration seen after dosing – in data set [1] (0.0611 mg/kg, group I, no OM (day 1), mean ± SD) came to 11.2 ± 2.34 ng/mL; in data set [1] (20 mg, group I, OM 20 mg (day 2), mean ± SD), 13.1 ± 4.3 ng/mL; in data set [1] (setting [9]), 13.1 ± 4.17 ng/mL; in data set [1] (group II, no FA (day 1)) it was 12.7 ± 4.39 ng/mL. In addition, the AUC in data set [1] (setting [8]) was found to be 38.7 ± 7.7 ng·h/mL; in data set [1] (group I, OM 20 mg (day 2)) it was 44.3 ± 11.5 ng·h/mL; in data set [1] (group II, no FA (day 1)), 42 ± 11.5 ng·h/mL. For the same molecule, the “Increase of tacrolimus AUC0-6” value in data set [1] (setting [10]) was 16.30%. Moreover, the “Increase of tacrolimus AUC0-6 normalized by the dose” value in data set [1] (setting [10]) is recorded as 12.88%. For the same molecule, the “Increase of tacrolimus AUC2-6” value in data set [1] (setting [10]) is reported as 14.58%. Moreover, the “Increase of tacrolimus AUC2-6 normalized by the dose” value in data set [1] (setting [10]) is listed as 12.74%. Besides, in data set [1] (setting [10]), the “Increase of tacrolimus C2h” value is reported as 26.60%.
